Measurements taken from patent US20140221361A1, “C-19 MODIFIED TRITERPENOIDS WITH HIV MATURATION INHIBITORY ACTIVITY” (priority 2013, published 2014).

tested on: recombinant NL4-3 virus (Renilla luciferase in nef, Gag P373S); assay: HIV cell culture assay (luciferase reporter, MT-2 cells); assay type: cell-based, HIV-1; settings: MT-2 cells infected for 4-5 days with NLRluc recombinants; luciferase activity; serial dilutions of inhibitor
Method: MT-2 cells and 293T cells were obtained from the NIH AIDS Research and Reference Reagent Program. MT-2 cells were propagated in RPMI 1640 media supplemented with 10% heat inactivated fetal bovine serum, […]. The 293T cells were propagated in DMEM media supplemented with 10% heat inactivated fetal bovine serum (FBS), 100 units/ml penicillin G and 100 µg/ml streptomycin. The proviral DNA clone of NL4-3 was obtained from the NIH AIDS Research and Reference Reagent Program. A recombinant NL4-3 virus, in which a section of the nef gene from NL4-3 was replaced with the Renilla luciferase gene, was used as a reference virus. In addition, residue Gag P373 was converted to P373S. Briefly, the recombinant virus was prepared by transfection of the altered proviral clone of NL4-3. Transfections were performed in 293T cells using LipofectAMINE PLUS from Invitrogen (Carlsbad, Calif.), according to manufacturer's instruction. The virus was titered in MT-2 cells using luciferase enzyme activity as a marker. Luciferase was quantitated using the Dual Luciferase kit from Promega (Madison, Wis.), with modifications to the manufacturer's protocol. The diluted Passive Lysis solution was pre-mixed with the re-suspended Luciferase Assay Reagent and the re-suspended Stop & Glo Substrate (2:1:1 ratio). Fifty (50) μL of the mixture was added to each aspirated well on assay plates and luciferase activity was measured immediately on a Wallac TriLux (Perkin-Elmer). Antiviral activities of inhibitors toward the recombinant virus were quantified by measuring luciferase activity in cells infected for 4-5 days with NLRluc recombinants in the presence serial dilutions of the inhibitor.

Q: How did the EC50 turn out when `CC(CC(=O)O)[C@@H]1CC[C@]2(C(=O)NCCN(C)C)CC[C@]3(C)[C@H](CC[C@@H]4[C@@]5(C)CC[C@H](c6ccc(C(=O)O)cc6)C(C)(C)[C@@H]5CC[C@]43C)[C@@H]12` (single isomer, unassigned) [Example 21] was run?
A: 40 nM

same assay, conditions: Renilla, NL43, MT-2 cells infected for 4-5 days with NLRluc recombinants; luciferase activity; serial dilutions of inhibitor

Q: `CN[C@@H]1CC[C@]2(NCCN3CCS(=O)(=O)CC3)CC[C@]3(C)[C@H](CC[C@@H]4[C@@]5(C)CC=C(c6ccc(C(=O)O)cc6)C(C)(C)[C@@H]5CC[C@]43C)[C@@H]12` [Example B37, 4-((1R,3aR,5aR,5bR,7aR,11aS,11bR,13aR,13bS)-3a-((2-(1,1-dioxidothiomorpholino)ethyl)amino)-5a,5b,8,8,11a-pentamethyl-1-(methylamino)-2,3,3a,4,5,5a,5b,6,7,7a,8,11,11a,11b,12,13,13a,13b-octadecahydro-1H-cyclopenta[a]chrysen-9-yl)benzoic acid] was tested. Which EC50 did it give?
A: 40 nM

Q: For `C=C(CN(C)CCN(C)C)[C@@H]1CC[C@]2(C(=O)NCCN(C)C)CC[C@]3(C)[C@H](CC[C@@H]4[C@@]5(C)CC=C(c6ccc(C(=O)O)cc6)C(C)(C)[C@@H]5CC[C@]43C)[C@@H]12` [Example 8, 4-((1R,3aS,5aR,5bR,7aR,11aS,11bR,13aR,13bS)-1-(3-((2-(dimethylamino)ethyl)(methyl)amino)prop-1-en-2-yl)-3a-(2-(dimethylamino)ethylcarbamoyl)-5a,5b,8,8,11a-pentamethyl-2,3,3a,4,5,5a,5b,6,7,7a,8,11,11a,11b,12,13,13a,13b-octadecahydro-1H-cyclopenta[a]chrysen-9-yl)benzoic acid], which EC50 is on record?
A: 1.49 nM

Q: How did the EC50 turn out when `CC([C@@H]1CC[C@]2(NCCN3CCS(=O)(=O)CC3)CC[C@]3(C)[C@H](CC[C@@H]4[C@@]5(C)CC=C(c6ccc(C(=O)O)cc6)C(C)(C)[C@@H]5CC[C@]43C)[C@@H]12)N1CCCC1=O` (stereo partly drawn) [Example B32, 4-((1R,3aS,5aR,5bR,7aR,11aS,11bR,13aR,13bS)-3a-((2-(1,1-dioxidothiomorpholino)ethyl)amino)-5a,5b,8,8,11a-pentamethyl-1-(1-(2-oxopyrrolidin-1-yl)ethyl)-2,3,3a,4,5,5a,5b,6,7,7a,8,11,11a,11b,12,13,13a,13b-octadecahydro-1H-cyclopenta[a]chrysen-9-yl)benzoic acid] was run?
A: 2.84 nM

Q: With `C=C(CNCCN(C)C)[C@@H]1CC[C@]2(C(=O)NCCC(=O)O)CC[C@]3(C)[C@H](CC[C@@H]4[C@@]5(C)CC=C(c6ccc(C(=O)O)cc6)C(C)(C)[C@@H]5CC[C@]43C)[C@@H]12` [Example 9, 4-((1R,3aS,5aR,5bR,7aR,11aS,11bR,13aR,13bS)-3a-(2-carboxyethylcarbamoyl)-1-(3-(2-(dimethylamino)ethylamino)prop-1-en-2-yl)-5a,5b,8,8,11a-pentamethyl-2,3,3a,4,5,5a,5b,6,7,7a,8,11,11a,11b,12,13,13a,13b-octadecahydro-1H-cyclopenta[a]chrysen-9-yl)benzoic acid] as the compound, how does the EC50 read?
A: 90 nM

Q: With `CC(=CC(=O)O)[C@@H]1CC[C@]2(C(=O)NCCN(C)C)CC[C@]3(C)[C@H](CC[C@@H]4[C@@]5(C)CC[C@H](c6ccc(C(=O)O)cc6)C(C)(C)[C@@H]5CC[C@]43C)[C@@H]12` [Example 19, 4-((1R,3aS,5aR,5bR,7aS,9S,11aS,11bR,13aR,13bR)-1-(1-carboxyprop-1-en-2-yl)-3a-((2-(dimethylamino)ethyl)carbamoyl)-5a,5b,8,8,11a-pentamethylicosahydro-1H-cyclopenta[a]chrysen-9-yl)benzoic acid] as the compound, how does the EC50 read?
A: 20 nM

Q: `CC(CN1CCS(=O)(=O)CC1)[C@@H]1CC[C@]2(NCCN3CCS(=O)(=O)CC3)CC[C@]3(C)[C@H](CC[C@@H]4[C@@]5(C)CC=C(c6ccc(C(=O)O)cc6)C(C)(C)[C@@H]5CC[C@]43C)[C@@H]12` (single isomer, unassigned) [Example B18] was tested. Which EC50 did it give?
A: 1.57 nM

Q: For `C/C=C1\CC[C@]2(NCCN3CCS(=O)(=O)CC3)CC[C@]3(C)[C@H](CC[C@@H]4[C@@]5(C)CC=C(c6ccc(C(=O)O)cc6)C(C)(C)[C@@H]5CC[C@]43C)[C@@H]12` [Example B13, 4-((3aS,5aR,5bR,7aR,11aS,11bR,13aR,13bS)-3a-((2-(1,1-dioxidothiomorpholino)ethyl)amino)-1-ethylidene-5a,5b,8,8,11a-pentamethyl-2,3,3a,4,5,5a,5b,6,7,7a,8,11,11a,11b,12,13,13a,13b-octadecahydro-1H-cyclopenta[a]chrysen-9-yl)benzoic acid], which EC50 is on record?
A: 10 nM

Q: Which EC50 does the source give for `C=C(CN(C)C(=O)CCC(=O)O)[C@@H]1CC[C@]2(C(=O)NCCC(=O)O)CC[C@]3(C)[C@H](CC[C@@H]4[C@@]5(C)CC=C(c6ccc(C(=O)O)cc6)C(C)(C)[C@@H]5CC[C@]43C)[C@@H]12` [Example 10, 4-((1R,3aS,5aR,5bR,7aR,11aS,11bR,13aR,13bS)-1-(3-(3-carboxy-N-methylpropanamido)prop-1-en-2-yl)-3a-(2-carboxyethylcarbamoyl)-5a,5b,8,8,11a-pentamethyl-2,3,3a,4,5,5a,5b,6,7,7a,8,11,11a,11b,12,13,13a,13b-octadecahydro-1H-cyclopenta[a]chrysen-9-yl)benzoic acid] here?
A: 2000 nM

Q: `COC(C)(C)[C@@H]1CC[C@]2(NCCN3CCS(=O)(=O)CC3)CC[C@]3(C)[C@H](CC[C@@H]4[C@@]5(C)CC=C(c6ccc(C(=O)O)cc6)C(C)(C)[C@@H]5CC[C@]43C)[C@@H]12` [Example B4, 4-((1R,3aS,5aR,5bR,7aR,11aS,11bR,13aR,13bS)-3a-((2-(1,1-dioxidothiomorpholino)ethyl)amino)-1-(2-methoxypropan-2-yl)-5a,5b,8,8,11a-pentamethyl-2,3,3a,4,5,5a,5b,6,7,7a,8,11,11a,11b,12,13,13a,13b-octadecahydro-1H-cyclopenta[a]chrysen-9-yl)benzoic acid] was tested. Which EC50 did it give?
A: 2.06 nM

Q: For `C=C(CNCCN(C)C)[C@@H]1CC[C@]2(C(=O)O)CC[C@]3(C)[C@H](CC[C@@H]4[C@@]5(C)CC=C(c6ccc(C(=O)O)cc6)C(C)(C)[C@@H]5CC[C@]43C)[C@@H]12` [Example 5, (1R,3aS,5aR,5bR,7aR,11aS,11bR,13aR,13bS)-9-(4-carboxyphenyl)-1-(3-(2-(dimethylamino)ethylamino)prop-1-en-2-yl)-5a,5b,8,8,11a-pentamethyl-2,3,3a,4,5,5a,5b,6,7,7a,8,11,11a,11b,12,13,13a,13b-octadecahydro-1H-cyclopenta[a]chrysene-3a-carboxylic acid], which EC50 is on record?
A: 160 nM

Q: For `C=C(CN(C)C)[C@@H]1CC[C@]2(C(=O)NCCN(C)C)CC[C@]3(C)[C@H](CC[C@@H]4[C@@]5(C)CC=C(c6ccc(C(=O)O)cc6)C(C)(C)[C@@H]5CC[C@]43C)[C@@H]12` [Example 7, 4-((1R,3aS,5aR,5bR,7aR,11aS,11bR,13aR,13bS)-3a-(2-(dimethylamino)ethylcarbamoyl)-1-(3-(dimethylamino)prop-1-en-2-yl)-5a,5b,8,8,11a-pentamethyl-2,3,3a,4,5,5a,5b,6,7,7a,8,11,11a,11b,12,13,13a,13b-octadecahydro-1H-cyclopenta[a]chrysen-9-yl)benzoic acid], which EC50 is on record?
A: 0.54 nM

Q: Which EC50 does the source give for `COCC(C)(OC)[C@@H]1CC[C@]2(NCCN3CCS(=O)(=O)CC3)CC[C@]3(C)[C@H](CC[C@@H]4[C@@]5(C)CC=C(c6ccc(C(=O)O)cc6)C(C)(C)[C@@H]5CC[C@]43C)[C@@H]12` (single isomer, unassigned) [Example B2] here?
A: 1.05 nM
